Data as given in patent US11071300B2, “Pesticidally active pyrazole derivatives” (SYNGENTA PARTICIPATIONS AG, priority 2017, dated 2021).
Like-named read-outs stand apart in the source and are kept apart here.

Tests used:
Assay type in all cases: in vivo
[1] = tested on: Diabrotica Balteata; test: Diabrotica balteata (corn root worm) maize sprout test; settings: 96 h, read-out: control (mortality and growth inhibition)
Protocol: Diabrotica Balteata, (Corn Root Worm)
Maize sprouts, placed on an agar layer in 24-well microtiter plates were treated with aqueous test solutions prepared from 10′000 ppm DMSO stock solutions by spraying. After drying, the plates were infested with L2 larvae (6 to 10 per well). The samples were assessed for mortality and growth inhibition in comparison to untreated samples 4 days after infestation.

[2] = tested on: Plutella xylostella; test: Plutella xylostella (diamond back moth) artificial diet test; settings: 120 h, read-out: control (mortality and growth inhibition)
Protocol: Plutella xylostella (Diamond Back Moth):
24-well microtiter plates with artificial diet were treated with aqueous test solutions prepared from 10′000 ppm DMSO stock solutions by pipetting. After drying, the plates were infested with L2 larvae (10 to 15 per well). The samples were assessed for mortality and growth inhibition in comparison to untreated samples 5 days after infestation.

[3] = tested on: Myzus persicae; test: Myzus persicae (green peach aphid) leaf disc test; settings: foliar, 144 h, read-out: control (mortality)
Protocol: Myzus persicae (Green Peach Aphid):
Sunflower leaf discs were placed on agar in a 24-well microtiter plate and sprayed with test solutions at an application rate of 200 ppm. After drying, the leaf discs were infested with an aphid population of mixed ages. After an incubation period of 6 DAT, samples were checked for mortality.

[4] = tested on: Tetranychus urticae; test: Tetranychus urticae (two-spotted spider mite) leaf disc test; settings: foliar, 192 h, read-out: control (mortality on mixed population, mobile stages)
Protocol: Tetranychus urticae (Two-Spotted Spider Mite):
Bean leaf discs on agar in 24-well microtiter plates were sprayed with aqueous test solutions prepared from 10′000 ppm DMSO stock solutions. After drying the leaf discs were infested with a mite population of mixed ages. The samples were assessed for mortality on mixed population (mobile stages) 8 days after infestation.

[5] = tested on: Euschistus heros; test: Euschistus heros (neotropical brown stink bug) soybean leaf test; settings: 120 h, read-out: control (mortality and growth inhibition)
Protocol: Euschistus heros (Neotropical Brown Stink Bug):
Soybean leaves on agar in 24-well microtiter plates were sprayed with aqueous test solutions prepared from 10′000 ppm DMSO stock solutions. After drying the leaves were infested with N2 nymphs. The samples were assessed for mortality and growth inhibition in comparison to untreated samples 5 days after infestation.

[6] = tested on: Thrips tabaci; test: Thrips tabaci (onion thrips) leaf disc test; settings: foliar, 144 h, read-out: control (mortality)
Protocol: Thrips tabaci (Onion Thrips):
Sunflower leaf discs were placed on agar in 24-well microtiter plates and sprayed with aqueous test solutions prepared from 10′000 ppm DMSO stock solutions. After drying the leaf discs were infested with a thrips population of mixed ages. The samples were assessed for mortality 6 days after infestation.

[7] = tested on: Spodoptera littoralis; test: Spodoptera littoralis (Egyptian cotton leaf worm) leaf disc test; settings: foliar, 72 h, application rate 200 ppm, cotton leaf discs sprayed, L1 larvae, 3 days after infestation, read-out: control (at least one of mortality, anti-feedant effect, growth inhibition)
Procedure, shortened: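 Five first-instar larvae per disc were placed on dried, sprayed cotton leaf discs held on agar. Test solutions were aqueous, made from 10′000 ppm DMSO stocks. At day 3, control was counted when mortality, feeding deterrence or growth inhibition exceeded the untreated discs.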

[8] = application rate 200 ppm, maize sprouts sprayed, L2 larvae, 4 days after infestation
[9] = application rate 200 ppm, artificial diet, L2 larvae, 5 days after infestation
[10] = application rate 200 ppm, sunflower leaf discs sprayed, mixed ages, 6 DAT
[11] = application rate 200 ppm, bean leaf discs sprayed, 8 days after infestation
[12] = application rate 200 ppm, soybean leaves sprayed, N2 nymphs, 5 days after infestation
[13] = application rate 200 ppm, sunflower leaf discs sprayed, mixed ages, 6 days after infestation

Cn1nc(OS(=O)(=O)C(F)(C(F)(F)F)C(F)(F)F)c(C(F)(F)F)c1-n1cc(-c2ccc(Cl)c(C(=O)N(CC#N)C3(C#N)CC3)c2)cn1 [Compound 49, [5-[4-[4-chloro-3-[(1-cyanocyclopropyl)-(cyanomethyl)carbamoyl]phenyl]pyrazol-1-yl]-1-methyl-4-(trifluoromethyl)pyrazol-3-yl] 1,1,1,2,3,3,3-heptafluoropropane-2-sulfonate]
≥ 80%: mortality at 200 ppm [1, 8] | mortality at 200 ppm [2, 9] | mortality at 200 ppm [3, 10] | mortality at 200 ppm [4, 11] | mortality at 200 ppm [5, 12] | mortality at 200 ppm [6, 13] | percent control (mortality, anti-feedant effect or growth inhibition) at 200 ppm [7]

Cn1nc(OS(=O)(=O)C(F)(C(F)(F)F)C(F)(F)F)c(C(F)(F)F)c1-c1cc(-c2ccc(Cl)c(C(=O)NC3CC3)c2)on1 [Compound 33, [5-[5-[4-chloro-3-(cyclopropylcarbamoyl)phenyl]isoxazol-3-yl]-1-methyl-4-(trifluoromethyl)pyrazol-3-yl] 1,1,1,2,3,3,3-heptafluoropropane-2-sulfonate]
≥ 80%: mortality at 200 ppm [1, 8] | mortality at 200 ppm [2, 9] | mortality at 200 ppm [3, 10] | mortality at 200 ppm [4, 11] | mortality at 200 ppm [5, 12] | mortality at 200 ppm [6, 13] | percent control (mortality, anti-feedant effect or growth inhibition) at 200 ppm [7]

COC(=O)N(C(=O)c1cc(-c2cnn(-c3c(C(F)(F)F)c(OS(=O)(=O)C(F)(C(F)(F)F)C(F)(F)F)nn3C)c2)ccc1Cl)C1(C#N)CC1 [Compound 52, [5-[4-[4-chloro-3-[(1-cyanocyclopropyl)-methoxycarbonyl-carbamoyl]phenyl]pyrazol-1-yl]-1-methyl-4-(trifluoromethyl)pyrazol-3-yl] 1,1,1,2,3,3,3-heptafluoropropane-2-sulfonate]
≥ 80%: mortality at 200 ppm [1] | mortality at 200 ppm [2] | mortality at 200 ppm [3] | mortality at 200 ppm [4] | mortality at 200 ppm [5] | mortality at 200 ppm [6] | percent control (mortality, anti-feedant effect or growth inhibition) at 200 ppm [7]

Cn1nc(OS(=O)(=O)C(F)(C(F)(F)F)C(F)(F)F)c(C(F)(F)F)c1-n1cc(-c2ccc(Cl)c(C(=O)NC3(C#N)CC3)c2)cn1 [Compound 2, [5-[4-[4-chloro-3-[(1-cyanocyclopropyl)carbamoyl]phenyl]pyrazol-1-yl]-1-methyl-4-(trifluoromethyl)pyrazol-3-yl] 1,1,1,2,3,3,3-heptafluoropropane-2-sulfonate]
≥ 80%: mortality at 200 ppm [1, 8] | mortality at 200 ppm [2, 9] | mortality at 200 ppm [3, 10] | mortality at 200 ppm [4, 11] | mortality at 200 ppm [5, 12] | mortality at 200 ppm [6, 13] | percent control (mortality, anti-feedant effect or growth inhibition) at 200 ppm [7]

Cn1nc(OS(=O)(=O)C(F)(C(F)(F)F)C(F)(F)F)c(C(F)(F)F)c1-n1cc(-c2ccc(Cl)c(C(=O)N(C=O)C3(C#N)CC3)c2)cn1 [Compound 57, [5-[4-[4-chloro-3-[(1-cyanocyclopropyl)-formyl-carbamoyl]phenyl]pyrazol-1-yl]-1-methyl-4-(trifluoromethyl)pyrazol-3-yl] 1,1,1,2,3,3,3-heptafluoropropane-2-sulfonate]
≥ 80%: mortality at 200 ppm [1, 8] | mortality at 200 ppm [2, 9] | mortality at 200 ppm [3, 10] | mortality at 200 ppm [4, 11] | mortality at 200 ppm [5, 12] | mortality at 200 ppm [6, 13] | percent control (mortality, anti-feedant effect or growth inhibition) at 200 ppm [7]

CCN(C(=O)c1cc(-c2cc(-c3c(C(F)(F)F)c(OS(=O)(=O)C(F)(C(F)(F)F)C(F)(F)F)nn3C)no2)ccc1Cl)C1CC1 [Compound 35, [5-[5-[4-chloro-3-[cyclopropyl(ethyl)carbamoyl]phenyl]isoxazol-3-yl]-1-methyl-4-(trifluoromethyl)pyrazol-3-yl] 1,1,1,2,3,3,3-heptafluoropropane-2-sulfonate]
≥ 80%: mortality at 200 ppm [1, 8] | mortality at 200 ppm [2, 9] | mortality at 200 ppm [3, 10] | mortality at 200 ppm [4, 11] | mortality at 200 ppm [5, 12] | mortality at 200 ppm [6, 13] | percent control (mortality, anti-feedant effect or growth inhibition) at 200 ppm [7]

CN(C(=O)c1cc(-c2cc(-c3c(C(F)(F)F)c(OS(=O)(=O)C(F)(C(F)(F)F)C(F)(F)F)nn3C)no2)ccc1Cl)C1(C#N)CC1 [Compound 37, [5-[5-[4-chloro-3-[(1-cyanocyclopropyl)-methyl-carbamoyl]phenyl]isoxazol-3-yl]-1-methyl-4-(trifluoromethyl)pyrazol-3-yl] 1,1,1,2,3,3,3-heptafluoropropane-2-sulfonate]
≥ 80%: mortality at 200 ppm [1, 8] | mortality at 200 ppm [2, 9] | mortality at 200 ppm [3, 10] | mortality at 200 ppm [4, 11] | mortality at 200 ppm [5, 12] | mortality at 200 ppm [6, 13] | percent control (mortality, anti-feedant effect or growth inhibition) at 200 ppm [7]

CN(C(=O)c1cc(-c2cnn(-c3c(C(F)(F)F)c(OS(=O)(=O)C(F)(C(F)(F)F)C(F)(F)F)nn3C)c2)ccc1Cl)C1(C#N)CC1 [Compound 18, [5-[4-[4-chloro-3-[(1-cyanocyclopropyl)-methyl-carbamoyl]phenyl]pyrazol-1-yl]-1-methyl-4-(trifluoromethyl)pyrazol-3-yl] 1,1,1,2,3,3,3-heptafluoropropane-2-sulfonate]
≥ 80%: mortality at 200 ppm [1, 8] | mortality at 200 ppm [2, 9] | mortality at 200 ppm [3, 10] | mortality at 200 ppm [4, 11] | mortality at 200 ppm [5, 12] | mortality at 200 ppm [6, 13] | percent control (mortality, anti-feedant effect or growth inhibition) at 200 ppm [7]

CCN(C(=O)c1cc(-c2cnn(-c3c(C(F)(F)F)c(OS(=O)(=O)C(F)(C(F)(F)F)C(F)(F)F)nn3C)c2)ccc1Cl)C1CC1 [Compound 12, [5-[4-[4-chloro-3-[cyclopropyl(ethyl)carbamoyl]phenyl]pyrazol-1-yl]-1-methyl-4-(trifluoromethyl)pyrazol-3-yl] 1,1,1,2,3,3,3-heptafluoropropane-2-sulfonate]
≥ 80%: mortality at 200 ppm [1, 8] | mortality at 200 ppm [2, 9] | mortality at 200 ppm [3, 10] | mortality at 200 ppm [4, 11] | mortality at 200 ppm [5, 12] | mortality at 200 ppm [6, 13] | percent control (mortality, anti-feedant effect or growth inhibition) at 200 ppm [7]

CN(C(=O)c1cc(-c2cnn(-c3c(C(F)(F)F)c(OS(=O)(=O)C(F)(C(F)(F)F)C(F)(F)F)nn3C)c2)cnc1Cl)C1(C#N)CC1 [Compound 25, [5-[4-[6-chloro-5-[(1-cyanocyclopropyl)-methyl-carbamoyl]-3-pyridyl]pyrazol-1-yl]-1-methyl-4-(trifluoromethyl)pyrazol-3-yl] 1,1,1,2,3,3,3-heptafluoropropane-2-sulfonate]
≥ 80%: mortality at 200 ppm [1, 8] | mortality at 200 ppm [2, 9] | mortality at 200 ppm [3, 10] | mortality at 200 ppm [4, 11] | mortality at 200 ppm [5, 12] | mortality at 200 ppm [6, 13] | percent control (mortality, anti-feedant effect or growth inhibition) at 200 ppm [7]

CCOC(=O)N(C(=O)c1cc(-c2cnn(-c3c(C(F)(F)F)c(OS(=O)(=O)C(F)(C(F)(F)F)C(F)(F)F)nn3C)c2)ccc1Cl)C1(C#N)CC1 [Compound 51, [5-[4-[4-chloro-3-[(1-cyanocyclopropyl)-ethoxycarbonyl-carbamoyl]phenyl]pyrazol-1-yl]-1-methyl-4-(trifluoromethyl)pyrazol-3-yl] 1,1,1,2,3,3,3-heptafluoropropane-2-sulfonate]
≥ 80%: mortality at 200 ppm [1] | mortality at 200 ppm [2] | mortality at 200 ppm [3] | mortality at 200 ppm [4] | mortality at 200 ppm [5] | mortality at 200 ppm [6] | percent control (mortality, anti-feedant effect or growth inhibition) at 200 ppm [7]

CCN(C(=O)c1cc(-c2cnn(-c3c(C(F)(F)F)c(OS(=O)(=O)C(F)(C(F)(F)F)C(F)(F)F)nn3C)c2)ccc1Cl)C1(C#N)CC1 [Compound 45, [5-[4-[4-chloro-3-[(1-cyanocyclopropyl)-ethyl-carbamoyl]phenyl]pyrazol-1-yl]-1-methyl-4-(trifluoromethyl)pyrazol-3-yl] 1,1,1,2,3,3,3-heptafluoropropane-2-sulfonate]
≥ 80%: mortality at 200 ppm [1, 8] | mortality at 200 ppm [2, 9] | mortality at 200 ppm [3, 10] | mortality at 200 ppm [4, 11] | mortality at 200 ppm [5, 12] | mortality at 200 ppm [6, 13] | percent control (mortality, anti-feedant effect or growth inhibition) at 200 ppm [7]
